According to patent US20260263644A1, “USE OF POSITRON MYOCARDIAL FATTY ACID METABOLISM IMAGING AGENT AND POSITRON 18F-FDG MYOCARDIAL GLUCOSE IMAGING AGENT IN PET COMBINED IMAGING” (priority 2023, published 2026):

Key:
normal myocardium = assay: Separate PET imaging with a single imaging agent, without combination; type: in vivo, Bama miniature pig; settings: Comparative Example 3; fasting; each agent administered separately, not in combination; FIGS. 7a, 7b
Description: Each experiment was performed using a Bama miniature pig of about one year old, and the experiment was repeated three times; taking the second experiment of the three experiments as an example: the piglet weighed about 10 kg, and the two imaging agents were administered separately for imaging rather than in combination. The results of separate PET imaging with ^18F-FDG and XTR003 are shown in FIGS. 7a and 7b, respectively.

[1] = system: anterior wall myocardium with chronic myocardial infarction; assay: Combined 18F-FDG and XTR003 PET myocardial metabolic imaging under fasting in the chronic myocardial infarction pig model; type: in vivo, Bama miniature pig; settings: for uptake in the myocardial infarction area (PET myocardial metabolic image): 18F-FDG 1mCi first
Description: Each experiment used a Bama miniature pig approximately one year old, and the experiment was repeated three times. Taking the second of the three experiments as an example: the piglet weighed approximately 10 kg. A constrictive ring was placed at the site of the left anterior descending coronary artery to gradually induce chronic myocardial infarction in the anterior wall myocardium. Four weeks later, for comparative purposes, a ^99mTc-Sestamibi SPECT myocardial perfusion imaging was performed in the morning (this imaging is the gold standard for assessing viable and scarred myocardium in the infarcted area and was used in this study as a reference for comparing PET imaging results). In the afternoon, a one-day protocol for combined ^18F-FDG and XTR003 PET imaging was performed (with at least 2-hour interval from the SPECT conducted in the morning, during which fasting was maintained). ^18F-FDG PET imaging was performed first, followed by XTR003 PET imaging. The injection doses of the above two agents were 1mCi and 2.5mCi, respectively. XTR003 was injected 1 hour after the ^18F-FDG injection, followed immediately by PET imaging. Each experiment used a Bama miniature pig about one year old, and the experiment was repeated three times. Taking the second of the three experiments as an example: the piglet weighed approximately 11 kg. A constriction ring was placed at the site of the left anterior descending coronary artery to gradually induce chronic myocardial infarction in the anterior wall myocardium. Three weeks later, for comparative purposes, a 99mTc-Sestamibi SPECT myocardial perfusion imaging was performed in the morning. In the afternoon, a one-day protocol combining ^18F-FDG and XTR003 PET imaging was performed, ^18F-FDG PET imaging was performed first, followed by XTR003 PET imaging. The injection doses of the above two agents were 1mCi and 3.1mCi, respectively. Among them, XTR003 was injected 1 hour after the ^18F-FDG injection, followed immediately by PET imaging. A disease animal model was constructed as described in Example 1. After myocardial perfusion imaging, “a one-day protocol combining ^18F-FDG PET and XTR003 PET imaging” was performed, wherein XTR003 was injected one hour after the injection of ^18F-FDG, followed immediately by PET imaging. The only difference between the Comparative Example and Example 1 is that the injection doses of the above two agents were 1 mCi and 0.25 mCi, respectively. The results of the combined ^18F-FDG and XTR003 PET imaging (also used the second experiment out of three replicates as an example) are shown in FIGS. 3a-3b. In the Figs.: An animal model of the disease was constructed as described in Example 1, differing only in the order of imaging; specifically, XTR003 PET imaging was performed first, followed by ^18F-FDG PET imaging. The injection doses of the two agents were 1 mCi and 3 mCi, respectively. In the Figs.: An animal model of the disease was constructed as described in Example 3. After myocardial perfusion, “a one-day protocol combining XTR003 PET and ^18F-FDG PET imaging” was performed, wherein ^18F-FDG was injected one hour after the injection of XTR003, followed immediately by PET imaging. The only difference between the Comparative Example and Example 3 was that the injection doses of the above two agents were 1 mCi and 0.25 mCi, respectively. In the Figs.: The disease animal model was constructed according to the description of Example 1. The only difference from Example 1 was that after the myocardial perfusion imaging, a “two-day protocol combining ^18F-FDG PET and XTR003 PET imaging” was performed instead of the “one-day protocol”. In the Figs.: An animal model of the disease was constructed as described in Example 1. After myocardial perfusion imaging, a “a one-day protocol combining ^18F-FDG PET and XTR003 PET imaging” was performed, wherein XTR003 was injected one hour after the injection of ^18F-FDG, followed immediately by PET imaging. […]

Structure (SMILES): CCCCCCCCC([18F])CCCCC1CC1CC(=O)O (stereo not shown) [XTR003]
- visibility of myocardial metabolic images (normal myocardium): can show normal image
- image quality of myocardial metabolic images ([1]; Comparative Example 1, one-day protocol, 18F-FDG 1 mCi first, then XTR003 0.25 mCi, FIGS. 3a-3b): excessive image noise
- image quality of myocardial metabolic images ([1]; Comparative Example 2, one-day protocol, XTR003 1 mCi first, then 18F-FDG 0.25 mCi, FIGS. 5a-5b): normal image quality
- uptake in the myocardial infarction area (PET myocardial metabolic image) ([1]; Example 1, one-day protocol, XTR003 2.5mCi injected 1 hour later, FIGS. 1b-1c): moderate uptake
- uptake in the myocardial infarction area (PET myocardial metabolic image) ([1]; Example 2, one-day protocol, XTR003 3.1mCi injected 1 hour later, FIGS. 2b-2c): no XTR003 uptake
- image quality of myocardial metabolic images ([1]; Example 3, one-day protocol, XTR003 1 mCi first, then 18F-FDG 3 mCi, FIGS. 4a-4b): normal image quality
- image quality of myocardial metabolic images ([1]; Example 4, two-day protocol, FIGS. 6a-6b): normal image quality
